Source: patent US20190175744A1, “INSULIN-INCRETIN CONJUGATES” (Merck Sharp & Dohme Corp., priority 2016, published 2019)
Read-outs that look alike come from different tables or passages of the source.

Legend:
human GCGR = target: T1, human GCGR (Homo sapiens, UniProt P47871); test: cAMP activity assay, cells expressing human GCGR; assay type: cell-based; settings: for GCGR/GLP1R ratio: Table 5, ratio of hGCGR EC50 to hGLP1R EC50;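 on all read-outs here: cAMP production read by luminescence after one hour of peptide exposure at room temperature, EC50 from logistic curve fit, native glucagon and GLP-1 as control peptides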
T1 construct: expressed in transfected cells; grown with Blasticidin and Hygromycin

human GLP1R = human GLP1R (Homo sapiens, UniProt P43220); test: cAMP activity assay, cells expressing human GLP1R; assay type: cell-based
Method: Activity of the incretin peptides or the conjugates at the Glucagon receptor (GCGR) and GLP-1 receptor (GLP1R) may be measured in a cAMP activity assay as follows.
Peptides are dissolved in 100% DMSO and serially diluted to generate 10 point titrations. The peptide solutions are then transferred into 384-well assay plates (150 nL/well). Assay ready frozen cells expressing human GLP1R or human GCGR are suspended in growth media consisting of DMEM medium (GIBCO), 10% FBS (GIBCO), 1×NEAA(GIBCO), 1×P/S (GIBCO), 10 μg/mL Blasticidin (GIBCO) and 200 μg/mL Hygromycin (GIBCO). […] The cell suspensions (15 μL) are then added to the assay plates containing the peptide solutions (30,000 cells/well for human GCGR; 10,000 cells/well for human GLP1R). The cells are incubated for one hour at room temperature in the dark.
Production of cAMP may be determined using HitHunterr cAMPXS kits (DiscoverX) following the manufacturer's protocol. The plates are incubated for overnight at room temperature in the dark. Luminescence may be measured using an EnVision Multilabel plate reader (Perkin Elmer). Native GLP-1 and Glucagon (Bachem) may be used as control peptides. EC50 values may be calculated using uses a 4 parameter logistic fit based on the Levenberg-Marquardt algorithm.

[1] = Table 5, incretin peptides, cAMP, read-out: hGLP1R EC50

Chain of human GLP1R (P43220 24-463): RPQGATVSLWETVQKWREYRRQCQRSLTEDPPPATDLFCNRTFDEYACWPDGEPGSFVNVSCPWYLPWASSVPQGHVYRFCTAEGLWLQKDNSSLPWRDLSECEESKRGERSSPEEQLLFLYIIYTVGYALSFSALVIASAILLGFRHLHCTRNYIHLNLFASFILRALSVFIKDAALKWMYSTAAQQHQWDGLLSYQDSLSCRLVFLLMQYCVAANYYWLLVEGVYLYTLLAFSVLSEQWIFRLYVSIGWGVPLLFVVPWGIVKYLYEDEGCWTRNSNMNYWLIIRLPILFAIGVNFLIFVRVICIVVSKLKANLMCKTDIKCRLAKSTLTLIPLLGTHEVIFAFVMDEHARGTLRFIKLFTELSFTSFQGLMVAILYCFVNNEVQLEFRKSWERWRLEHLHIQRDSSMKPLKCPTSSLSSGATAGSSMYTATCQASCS
T1 sequence (P47871 26-477): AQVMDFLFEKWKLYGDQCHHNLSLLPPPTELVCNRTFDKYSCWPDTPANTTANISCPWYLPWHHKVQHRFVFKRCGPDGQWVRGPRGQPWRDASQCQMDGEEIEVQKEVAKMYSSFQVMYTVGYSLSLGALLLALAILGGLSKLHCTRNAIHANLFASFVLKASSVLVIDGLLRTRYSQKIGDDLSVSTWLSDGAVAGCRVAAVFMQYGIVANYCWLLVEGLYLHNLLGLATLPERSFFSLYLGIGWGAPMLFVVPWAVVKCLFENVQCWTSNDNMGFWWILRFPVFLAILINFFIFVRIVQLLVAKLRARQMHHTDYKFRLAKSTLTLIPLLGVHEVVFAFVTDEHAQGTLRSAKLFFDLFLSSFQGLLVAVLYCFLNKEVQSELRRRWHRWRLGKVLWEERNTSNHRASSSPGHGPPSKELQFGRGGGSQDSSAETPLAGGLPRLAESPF

Row | Structure (SMILES) | EC50 (human GCGR) [nM] | GCGR/GLP1R ratio (human GCGR) | EC50 (human GLP1R; [1]) [nM] | EC50 (human GLP1R) [nM]
1 | CCCCCCCCCCCCCCCC(=O)N[C@@H](CCC(=O)N[C@@H](CCC(=O)NCCCC[C@H](NC(=O)[C@H](CC(=O)O)NC(=O)[C@H](CO)NC(=O)[C@@H](NC(=O)[C@H](Cc1ccccc1)NC(=O)[C@@H](NC(=O)CNC(=O)[C@H](CCC(N)=O)NC(=O)[C@@H](CO)NC(=O)[C@@H](N)Cc1c[nH]cn1)[C@@H](C)O)[C@@H](C)O)C(=O)N[C@@H](CO)C(=O)N[C@@H](CCCCN)C(=O)N[C@@H](Cc1ccc(O)cc1)C(=O)N[C@@H](CC(C)C)C(=O)N[C@@H](CC(=O)O)C(=O)N[C@@H](CCC(=O)O)C(=O)N[C@@H](CCCNC(=N)N)C(=O)N[C@@H](C)C(=O)N[C@@H](C)C(=O)N[C@@H](CCC(N)=O)C(=O)N[C@@H](CC(=O)O)C(=O)N[C@@H](Cc1ccccc1)C(=O)N[C@H](C(=O)N[C@@H](CCCCN=[N+]=[N-])C(=O)N[C@@H](Cc1c[nH]c2ccccc12)C(=O)N[C@@H](CC(C)C)C(=O)N[C@@H](CC(C)C)C(=O)N[C@@H](CCC(=O)N[C@H](C(N)=O)[C@@H](C)O)C(=O)O)C(C)C)C(=O)O)C(=O)O [PEP11] | 0.03 | 0.4 | 0.06 | 
2 | CCCCCCCCCCCCCCCC(=O)N[C@@H](CCC(=O)N[C@@H](CCC(=O)NCCCC[C@H](NC(=O)[C@H](CC(=O)O)NC(=O)[C@H](CO)NC(=O)[C@@H](NC(=O)[C@H](Cc1ccccc1)NC(=O)[C@@H](NC(=O)CNC(=O)[C@H](CCC(N)=O)NC(=O)[C@@H](CO)NC(=O)[C@@H](N)Cc1c[nH]cn1)[C@@H](C)O)[C@@H](C)O)C(=O)N[C@@H](CO)C(=O)N[C@@H](CCCCN)C(=O)N[C@@H](Cc1ccc(O)cc1)C(=O)N[C@@H](CC(C)C)C(=O)N[C@@H](CC(=O)O)C(=O)N[C@@H](CC(N)=O)C(=O)N[C@@H](CCCCN)C(=O)N[C@@H](CCCNC(=N)N)C(=O)N[C@@H](C)C(=O)N[C@@H](CCC(N)=O)C(=O)N[C@@H](CC(=O)O)C(=O)N[C@@H](Cc1ccccc1)C(=O)N[C@H](C(=O)N[C@@H](CCCCN=[N+]=[N-])C(=O)N[C@@H](Cc1c[nH]c2ccccc12)C(=O)N[C@@H](CC(C)C)C(=O)N[C@@H](CC(C)C)C(=O)N[C@@H](CCC(N)=O)C(=O)N[C@H](C(N)=O)[C@@H](C)O)C(C)C)C(=O)O)C(=O)O [PEP12] | 0.02 | 0.3 |  | 0.07
3 | CCCCCCCCCCCCCCCC(=O)N[C@@H](CCC(=O)N[C@@H](CCC(=O)NCCCC[C@H](NC(=O)[C@H](CC(=O)O)NC(=O)[C@H](CO)NC(=O)[C@@H](NC(=O)[C@H](Cc1ccccc1)NC(=O)[C@@H](NC(=O)CNC(=O)[C@H](CCC(N)=O)NC(=O)[C@@H](CO)NC(=O)[C@@H](N)Cc1c[nH]cn1)[C@@H](C)O)[C@@H](C)O)C(=O)N[C@@H](CO)C(=O)N[C@@H](CCCCN)C(=O)N[C@@H](Cc1ccc(O)cc1)C(=O)N[C@@H](CC(C)C)C(=O)N[C@@H](CC(=O)O)C(=O)N[C@@H](CO)C(=O)N[C@@H](CCCNC(=N)N)C(=O)N[C@@H](CCCNC(=N)N)C(=O)N[C@@H](C)C(=O)N[C@@H](Cc1c[nH]cn1)C(=O)N[C@@H](CC(=O)O)C(=O)N[C@@H](Cc1ccccc1)C(=O)N[C@H](C(=O)N[C@@H](CCCCN=[N+]=[N-])C(=O)N[C@@H](Cc1c[nH]c2ccccc12)C(=O)N[C@@H](CC(C)C)C(=O)N[C@@H](CC(C)C)C(=O)N[C@@H](CC(N)=O)C(=O)N[C@H](C(N)=O)[C@@H](C)O)C(C)C)C(=O)O)C(=O)O [PEP13] | 0.04 | 0.4 |  | 0.1
4 | CCCCCCCCCCCCCCCC(=O)N[C@@H](CCC(=O)N[C@@H](CCC(=O)NCCCC[C@H](NC(=O)[C@H](CC(=O)O)NC(=O)[C@H](CO)NC(=O)[C@@H](NC(=O)[C@H](Cc1ccccc1)NC(=O)[C@@H](NC(=O)CNC(=O)[C@H](CCC(N)=O)NC(=O)[C@@H](CO)NC(=O)[C@@H](N)Cc1c[nH]cn1)[C@@H](C)O)[C@@H](C)O)C(=O)N[C@@H](CO)C(=O)N[C@@H](CCCCN)C(=O)N[C@@H](Cc1ccc(O)cc1)C(=O)N[C@@H](CC(C)C)C(=O)N[C@@H](CC(=O)O)C(=O)N[C@@H](CCC(=O)O)C(=O)N[C@@H](CCCNC(=N)N)C(=O)N[C@@H](C)C(=O)N[C@@H](C)C(=O)N[C@@H](CCC(N)=O)C(=O)N[C@@H](CC(=O)O)C(=O)N[C@@H](Cc1ccccc1)C(=O)N[C@H](C(=O)N[C@@H](CCCCNC(=O)COCCOCCNC(=O)CCCCN=[N+]=[N-])C(=O)N[C@@H](Cc1c[nH]c2ccccc12)C(=O)N[C@@H](CC(C)C)C(=O)N[C@@H](CC(C)C)C(=O)N[C@@H](CC(=O)O)C(=O)N[C@H](C(N)=O)[C@@H](C)O)C(C)C)C(=O)O)C(=O)O [PEP14] | 0.05 | 0.8 |  | 0.07
5 | CCCCCCCCCCCCCCCC(=O)N[C@@H](CCC(=O)N[C@@H](CCC(=O)NCCCC[C@H](NC(=O)[C@H](CC(=O)O)NC(=O)[C@H](CO)NC(=O)[C@@H](NC(=O)[C@H](Cc1ccccc1)NC(=O)[C@@H](NC(=O)CNC(=O)[C@H](CCC(N)=O)NC(=O)[C@@H](CO)NC(=O)[C@@H](N)Cc1c[nH]cn1)[C@@H](C)O)[C@@H](C)O)C(=O)N[C@@H](CO)C(=O)N[C@@H](CCCCN)C(=O)N[C@@H](Cc1ccc(O)cc1)C(=O)N[C@@H](CC(C)C)C(=O)N[C@@H](CC(=O)O)C(=O)N[C@@H](CCC(=O)O)C(=O)N[C@@H](CCCNC(=N)N)C(=O)N[C@@H](C)C(=O)N[C@@H](C)C(=O)N[C@@H](CCCCNC(=O)COCCOCCNC(=O)CCCCN=[N+]=[N-])C(=O)N[C@@H](CC(=O)O)C(=O)N[C@@H](Cc1ccccc1)C(=O)N[C@H](C(=O)N[C@@H](CCC(N)=O)C(=O)N[C@@H](Cc1c[nH]c2ccccc12)C(=O)N[C@@H](CC(C)C)C(=O)N[C@@H](CC(C)C)C(=O)N[C@@H](CC(=O)O)C(=O)N[C@H](C(N)=O)[C@@H](C)O)C(C)C)C(=O)O)C(=O)O [PEP16] | 0.05 | 0.8 | 0.06 | 
6 | CCCCCCCCCCCCCCCC(=O)N[C@@H](CCC(=O)N[C@@H](CCC(=O)NCCCC[C@H](NC(=O)[C@H](CC(=O)O)NC(=O)[C@H](CO)NC(=O)[C@@H](NC(=O)[C@H](Cc1ccccc1)NC(=O)[C@@H](NC(=O)CNC(=O)[C@H](CCC(N)=O)NC(=O)[C@@H](CO)NC(=O)[C@@H](N)Cc1c[nH]cn1)[C@@H](C)O)[C@@H](C)O)C(=O)N[C@@H](CO)C(=O)N[C@@H](CCCCN)C(=O)N[C@@H](Cc1ccc(O)cc1)C(=O)N[C@@H](CC(C)C)C(=O)N[C@@H](CC(=O)O)C(=O)N[C@@H](CCC(=O)O)C(=O)N[C@@H](CCCNC(=N)N)C(=O)N[C@@H](C)C(=O)N[C@@H](C)C(=O)N[C@@H](CCCCNC(=O)COCCOCCNC(=O)COCCOCCNC(=O)CCCCN=[N+]=[N-])C(=O)N[C@@H](CC(=O)O)C(=O)N[C@@H](Cc1ccccc1)C(=O)N[C@H](C(=O)N[C@@H](CCC(N)=O)C(=O)N[C@@H](Cc1c[nH]c2ccccc12)C(=O)N[C@@H](CC(C)C)C(=O)N[C@@H](CC(C)C)C(=O)N[C@@H](CC(=O)O)C(=O)N[C@H](C(N)=O)[C@@H](C)O)C(C)C)C(=O)O)C(=O)O [PEP17] | 0.06 | 1.2 | 0.05 | 
